From ChEMBL document CHEMBL5728342, “Heterocyclic compounds for the inhibition of pask” (2021)

Molecular target: PAS domain-containing serine/threonine-protein kinase (Homo sapiens, UniProt Q96RG2)
Test: FRET Assay : Table 3: In the presence of kinase and ATP, the Ulight-peptide is phosphorylated and captured by an anti-phospho-substrate antibody, which brings the Eu chelate donor and Ulight acceptor dyes into close proximity. Upon excitation at 340 nm, the Eu chelate transfers its energy to the Ulight dye, resulting in a fluorescent light emission at 665 nm. Titration of kinase at 1 mM ATP was achieved via the following protocol. After making serial three-fold dilutions of PASK (Invitrogen) in reaction buffer across the plate; 5 μl of kinase dilution and 5 μl substrate/ATP mix were added to the wells of the white Optiplate-384 (PerkinElmer). The contents of the plate were and incubated at RT for 1 h. The reaction was stopped by adding 5 μl of stop solution to each test well followed by mixing and incubation at RT for 10 minutes. 5 μl of detection mix (detection antibody diluted in detection buffer) was added; the contents of the plate were mixed and then incubated in the dark for 1 hour at RT. The signal was recorded at TR-FRET mode (665 nm/615 nm). The results were graphed to calculate the EC50.

Chain of PAS domain-containing serine/threonine-protein kinase (Q96RG2 whole entry, the tested form may be a part): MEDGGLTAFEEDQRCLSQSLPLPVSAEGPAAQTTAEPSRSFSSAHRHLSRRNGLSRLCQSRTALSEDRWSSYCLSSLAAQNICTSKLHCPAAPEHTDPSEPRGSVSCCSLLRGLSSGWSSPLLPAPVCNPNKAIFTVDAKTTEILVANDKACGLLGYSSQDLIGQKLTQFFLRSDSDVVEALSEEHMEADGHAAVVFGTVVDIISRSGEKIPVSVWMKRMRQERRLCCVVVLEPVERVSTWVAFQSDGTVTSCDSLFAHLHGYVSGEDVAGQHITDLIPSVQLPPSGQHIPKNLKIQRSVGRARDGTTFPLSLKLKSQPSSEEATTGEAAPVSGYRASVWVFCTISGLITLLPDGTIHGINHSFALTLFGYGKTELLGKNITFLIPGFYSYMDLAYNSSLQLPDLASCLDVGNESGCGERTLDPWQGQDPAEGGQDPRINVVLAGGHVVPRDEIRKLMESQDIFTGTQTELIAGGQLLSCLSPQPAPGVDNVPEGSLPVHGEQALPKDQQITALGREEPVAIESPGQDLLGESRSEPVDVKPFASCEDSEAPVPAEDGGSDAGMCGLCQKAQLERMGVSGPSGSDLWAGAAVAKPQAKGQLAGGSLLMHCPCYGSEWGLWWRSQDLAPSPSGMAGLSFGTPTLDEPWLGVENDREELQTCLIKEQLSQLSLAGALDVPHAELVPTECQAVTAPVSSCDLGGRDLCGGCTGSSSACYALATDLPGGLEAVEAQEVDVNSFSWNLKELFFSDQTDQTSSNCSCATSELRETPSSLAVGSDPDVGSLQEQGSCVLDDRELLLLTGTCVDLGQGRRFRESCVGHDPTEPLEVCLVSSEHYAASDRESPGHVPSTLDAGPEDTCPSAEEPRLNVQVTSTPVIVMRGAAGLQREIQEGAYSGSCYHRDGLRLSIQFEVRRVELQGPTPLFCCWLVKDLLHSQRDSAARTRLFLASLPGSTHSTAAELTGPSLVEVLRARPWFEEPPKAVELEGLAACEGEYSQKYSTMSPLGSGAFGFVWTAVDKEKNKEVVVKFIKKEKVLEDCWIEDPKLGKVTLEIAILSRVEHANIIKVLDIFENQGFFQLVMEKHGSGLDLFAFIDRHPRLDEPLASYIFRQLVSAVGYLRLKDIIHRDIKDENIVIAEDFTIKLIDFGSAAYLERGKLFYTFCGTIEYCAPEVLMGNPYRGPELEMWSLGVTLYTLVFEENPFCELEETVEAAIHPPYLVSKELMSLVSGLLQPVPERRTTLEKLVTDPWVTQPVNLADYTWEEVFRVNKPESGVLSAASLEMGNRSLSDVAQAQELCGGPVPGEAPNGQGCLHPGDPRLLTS

IC50: < 10 µM
Compound: Nc1nn2c(c1-c1ccccn1)CC(c1ccc3c(c1)OC(F)(F)O3)=CC2=O
